Values quoted from earlier work in patent US20220008485A1, “Wound Honey” (priority 2020, published 2022).
Where two headings read alike, the source gives them in different places.

What was measured:
Pseudomonas aeruginosa = conditions: for MBC combination Acid/H2O2: H2O2 part: in Bovine albumin + yeast extract 1%; for MBC acid: acid alone; for MBC combination Acid/H2O2: acid part: acid combined with H2O2, in Bovine albumin + yeast extract 1%
spores of B. cereus = conditions: 0.1% TC, HP at 600 MPA, 7° Celsius, infant formula
[1] = H2O2 combined with Formic acid, in Bovine albumin + yeast extract 1%
[2] = acid combined with H2O2, in Bovine albumin + yeast extract 1%
[3] = in combination with silver nanoparticles

## OO [hydrogen peroxide]
Pseudomonas aeruginosa; H2O2 combined with Acetic acid
  MBC combination Acid/H2O2: H2O2 part: 0.39%
Pseudomonas aeruginosa; H2O2 combined with Formic acid
  MBC combination Acid/H2O2: H2O2 part: 0.39%
Pseudomonas aeruginosa; H2O2 combined with Propionic acid
  MBC combination Acid/H2O2: H2O2 part: 0.19%
Pseudomonas aeruginosa; H2O2 combined with Succinic acid
  MBC combination Acid/H2O2: H2O2 part: 0.78%
Pseudomonas aeruginosa; hydrogen peroxide alone
  MBC hydrogen peroxide: 1.56%
Staphylococcus aureus; [1]
  MBC combination Acid/H2O2: H2O2 part: 1.56%
Staphylococcus aureus; hydrogen peroxide alone
  MBC hydrogen peroxide: 3.12%
Enterococcus hirae; [1]
  MBC combination Acid/H2O2: H2O2 part: 3.12%
Enterococcus hirae; hydrogen peroxide alone
  MBC hydrogen peroxide: 12.5%
Listeria monocytogenes; H2O2 combined with Formic (printed Fonnic) acid, in Bovine albumin + yeast extract 1%
  MBC combination Acid/H2O2: H2O2 part: 0.78%
Listeria monocytogenes; hydrogen peroxide alone
  MBC hydrogen peroxide: 6.25%

## O=C/C=C/c1ccccc1 [TC, trans-cinnamaldehyde]
Spores of B. cereus; Week 1
  Mean logarithmic decrease in spores of B. cereus: 1.5
Spores of B. cereus; Week 2
  Mean logarithmic decrease in spores of B. cereus: 2
Spores of B. cereus; Week 3
  Mean logarithmic decrease in spores of B. cereus: 3
Spores of B. cereus; Week 4
  Mean logarithmic decrease in spores of B. cereus: 2.25
Spores of B. cereus; Week 5
  Mean logarithmic decrease in spores of B. cereus: 3
Spores of B. cereus; Week 6
  Mean logarithmic decrease in spores of B. cereus: 1.5

## O=CO [Formic, formic acid]
Pseudomonas aeruginosa
  MBC acid: 0.025%
  MBC combination Acid/H2O2: acid part: 0.025%
Staphylococcus aureus; acid alone
  MBC acid: 1.25%
Staphylococcus aureus; [2]
  MBC combination Acid/H2O2: acid part: 0.312%
Enterococcus hirae; acid alone
  MBC acid: 5%
Enterococcus hirae; [2]
  MBC combination Acid/H2O2: acid part: 0.625%
Listeria monocytogenes; acid alone
  MBC acid: 1.56%
Listeria monocytogenes; [2]
  MBC combination Acid/H2O2: acid part: 0.625%

## CC(=O)O [Acetic, acetic acid]
Pseudomonas aeruginosa
  MBC acid: 0.625%
  MBC combination Acid/H2O2: acid part: 0.625%

## O=C(O)CCC(=O)O [Succinic, succinic acid]
Pseudomonas aeruginosa
  MBC acid: 0.078%
  MBC combination Acid/H2O2: acid part: 0.078%

## CCC(=O)O [Propionic, propionic acid]
Pseudomonas aeruginosa
  MBC acid: 0.5%
  MBC combination Acid/H2O2: acid part: 0.50%

## O=CC=Cc1ccccc1 [Cinnamaldehyde, cinnamaldehyde]
Bacillus cereus; alone
  Minimal Inhibitory Concentration, Cinnamaldehyde: 0.328 mg/mL
Bacillus cereus; [3]
  Minimal Inhibitory Concentration, Synergy Cinnamaldehyde: 0.082 mg/mL
Clostridium perfringens; alone
  Minimal Inhibitory Concentration, Cinnamaldehyde: 0.065 mg/mL
Clostridium perfringens; [3]
  Minimal Inhibitory Concentration, Synergy Cinnamaldehyde: 0.016 mg/mL
